Experiments:
[1] = target: T1, Recombinant human His6-USP1/His6-UAF1 complex protein (Homo sapiens, UniProt O94782); test: In vitro inhibitory activity against USP1 (Ubiquitin Rhodamine 110 fluorescence detection, 384-well plate); assay type: biochemical; conditions: Ub-Rho substrate, 1 hour pre-incubation, read after 30 minutes
T1 construct: His6; purchased R&D E-568-050
Procedure, shortened: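 Compounds, kept as 50 mM DMSO stocks, were acoustically dispensed into modified Tris buffer. Inhibition of recombinant human His6-USP1/His6-UAF1 was read by fluorescence from cleavage of Ub-Rho110 substrate.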

MDA-MB-436 = test: CTG experiment for cell viability (CellTiter-Glo, 96-well plate, 7 days); assay type: cell-based; conditions: Homo sapiens, MDA-MB-436, 168 h, MDA-MB-436 cells, 7 days culture with compound
Procedure, shortened: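 Viability was read by CellTiter-Glo luminescence after 10 min at room temperature, once the compound-containing medium had been replaced with PBS. Before that, MDA-MB-436 cells grown in DMEM were exposed to compounds for 7 days at 37°C. Curve fitting followed the enzyme assay method.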

T1 sequence (O94782 whole entry): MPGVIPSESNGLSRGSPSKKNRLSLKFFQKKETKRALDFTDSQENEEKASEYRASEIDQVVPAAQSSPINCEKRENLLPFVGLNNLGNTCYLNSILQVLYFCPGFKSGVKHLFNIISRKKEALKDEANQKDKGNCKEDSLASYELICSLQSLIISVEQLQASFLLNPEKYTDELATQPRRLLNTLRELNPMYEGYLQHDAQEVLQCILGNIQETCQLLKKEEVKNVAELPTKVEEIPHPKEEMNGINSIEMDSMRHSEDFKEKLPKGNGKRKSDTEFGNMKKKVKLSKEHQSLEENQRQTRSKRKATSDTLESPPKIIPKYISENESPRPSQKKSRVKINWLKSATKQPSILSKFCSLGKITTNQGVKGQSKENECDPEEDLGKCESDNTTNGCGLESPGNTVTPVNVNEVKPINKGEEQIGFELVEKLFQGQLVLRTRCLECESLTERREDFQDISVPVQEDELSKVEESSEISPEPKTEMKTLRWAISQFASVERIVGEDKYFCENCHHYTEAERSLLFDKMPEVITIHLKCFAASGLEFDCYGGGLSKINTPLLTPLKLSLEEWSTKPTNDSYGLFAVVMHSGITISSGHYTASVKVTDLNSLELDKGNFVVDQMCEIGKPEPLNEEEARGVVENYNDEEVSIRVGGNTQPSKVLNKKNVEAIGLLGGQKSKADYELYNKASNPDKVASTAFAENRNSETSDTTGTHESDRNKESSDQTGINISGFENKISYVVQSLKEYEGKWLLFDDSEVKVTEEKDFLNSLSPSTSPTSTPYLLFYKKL
T1 sequence (Q8TAF3 whole entry partner): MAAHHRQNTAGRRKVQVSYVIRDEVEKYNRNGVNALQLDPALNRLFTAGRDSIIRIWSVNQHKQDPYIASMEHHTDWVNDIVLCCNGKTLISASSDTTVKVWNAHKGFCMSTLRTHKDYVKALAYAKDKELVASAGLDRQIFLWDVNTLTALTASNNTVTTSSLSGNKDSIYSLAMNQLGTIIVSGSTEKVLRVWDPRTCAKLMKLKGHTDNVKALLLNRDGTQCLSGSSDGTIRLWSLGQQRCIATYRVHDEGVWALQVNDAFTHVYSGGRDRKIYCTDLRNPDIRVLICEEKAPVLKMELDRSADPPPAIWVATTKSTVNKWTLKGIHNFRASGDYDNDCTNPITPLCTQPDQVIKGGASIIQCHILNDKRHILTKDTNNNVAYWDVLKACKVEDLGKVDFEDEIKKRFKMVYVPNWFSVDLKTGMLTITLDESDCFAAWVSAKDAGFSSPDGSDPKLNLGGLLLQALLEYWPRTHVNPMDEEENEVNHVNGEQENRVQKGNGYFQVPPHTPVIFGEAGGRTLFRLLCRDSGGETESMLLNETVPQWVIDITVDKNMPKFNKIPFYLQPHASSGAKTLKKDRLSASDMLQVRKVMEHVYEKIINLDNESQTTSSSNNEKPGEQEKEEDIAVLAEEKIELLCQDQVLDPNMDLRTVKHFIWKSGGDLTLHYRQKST

IC50 [1] [nM]	IC50 (MDA-MB-436) [nM]	Structure (SMILES)
12	82.1	Cn1cc(C(F)(F)F)nc1-c1ccc(CNc2nc(-c3cncnc3C3CC3)nc3ccoc23)cc1 [Example 196, 2-(4-Cyclopropylpyrimidin-5-yl)-N-(4-(1-methyl-4-(trifluoromethyl)-1H-imidazol-2-yl)benzyl)furo[3,2-d]pyrimidin-4-amine]
3.8	20.4	COc1cnc(-c2c(Cl)cnn2C2CC2)nc1NCc1ccc(-c2nc(C(F)(F)F)cn2C)cc1 [Example 192, 2-(4-Chloro-1-cyclopropyl-1H-pyrazol-5-yl)-5-methoxy-N-(4-(1-methyl-4-(trifluoromethyl)-1H-imidazol-2-yl)benzyl)pyrimidin-4-amine]
1.1	29.4	CC(C)c1ccccc1-c1ncc(OC(F)F)c(NCc2ccc(-c3nc(C(F)(F)F)cn3C)cc2)n1 [Example 86, 5-(Difluoromethoxy)-2-(2-isopropylphenyl)-N-(4-(1-methyl-4-(trifluoromethyl)-1H-imidazol-2-yl)benzyl)pyrimidin-4-amine]
2.8	6.4	COc1cnc(-c2ccccc2C(C)C)nc1N(C)Cc1ccc(-c2nc(C(F)(F)F)cn2C)cc1 [Example 3, 2-(2-Isopropylphenyl)-5-methoxy-N-methyl-N-(4-(1-methyl-4-(trifluoromethyl)-1H-imidazol-2-yl)benzyl)pyrimidin-4-amine]
9	12.4	COCc1cnc(-c2c(OC)ncnc2C2CC2)nc1N(C)Cc1ccc(-c2nc(C(F)(F)F)cn2C(C)C)cc1 [Example 138, 4'-Cyclopropyl-N-(4-(1-isopropyl-4-(trifluoromethyl)-1H-imidazol-2-yl)benzyl)-6'-methoxy-5-(methoxymethyl)-N-methyl-[2,5'-bipyrimidin]-4-amine]
2.6	5.7	[2H]C([2H])([2H])N(Cc1ccc(-c2nc(C(F)(F)F)cn2C2CC2)cc1)c1nc(-c2c(OC)ncnc2C2CC2)ncc1F [Example 128, 4'-Cyclopropyl-N-(4-(1-cyclopropyl-4-(trifluoromethyl)-1H-imidazol-2-yl)benzyl)-5-fluoro-6'-methoxy-N-(methyl-d3)-[2,5'-bipyrimidin]-4-amine]
7.4	6	COc1cnn(C(C)C)c1-c1nc(NCc2ccc(-n3nc(C(F)(F)F)cc3C)cc2)c2occc2n1 [Example 182, 2-(1-Isopropyl-4-methoxy-1H-pyrazol-5-yl)-N-(4-(5-methyl-3-(trifluoromethyl)-1H-pyrazol-1-yl)benzyl)furo[3,2-d]pyrimidin-4-amine]
19.4	600	CC(C)Oc1cnc(-c2ccccc2C(C)C)nc1N(C)CC1CCN(c2nc(C(F)(F)F)cn2C)CC1 [Example 70, 5-Isopropoxy-2-(2-isopropylphenyl)-N-methyl-N-((1-(1-methyl-4-(trifluoromethyl)-1H-imidazol-2-yl)piperidin-4-yl)methyl)pyrimidin-4-amine]
1	23.6	Cn1cc(C(F)(F)F)nc1-c1ccc(CNc2nc(-c3ccccc3C3CC3)nc3ccoc23)cc1 [Example 173, 2-(2-Cyclopropylphenyl)-N-(4-(1-methyl-4-(trifluoromethyl)-1H-imidazol-2-yl)benzyl)furo[3,2-d]pyrimidin-4-amine]
1.1	13.7	CC(C)c1ccccc1-c1ncc(Cl)c(NCc2ccc(-c3nc(C(F)(F)F)cn3C)cc2)n1 [Example 38, 5-Chloro-2-(2-isopropylphenyl)-N-(4-(1-methyl-4-(trifluoromethyl)-1H-imidazol-2-yl)benzyl)pyrimidin-4-amine]
13	82.8	COc1cc(CNc2nc(-c3c(OC)ncnc3C3CC3)nc3ccoc23)ccc1-n1nc(C(F)(F)F)cc1C [Example 122, 2-(4-Cyclopropyl-6-methoxypyrimidin-5-yl)-N-(3-methoxy-4-(5-methyl-3-(trifluoromethyl)-1H-pyrazol-1-yl)benzyl)furo[3,2-d]pyrimidin-4-amine]
4.3	10.7	COc1cnc(-c2c(Cl)cnn2C2CC2)nc1N(C)Cc1ccc(-c2nc(C(F)(F)F)cn2C)cc1 [Example 191, 2-(4-Chloro-1-cyclopropyl-1H-pyrazol-5-yl)-5-methoxy-N-methyl-N-(4-(1-methyl-4-(trifluoromethyl)-1H-imidazol-2-yl)benzyl)pyrimidin-4-amine]
2.1	41.4	CC(C)n1ncc(Cl)c1-c1nc(NCc2ccc(-c3ccccn3)cc2)c2occc2n1 [Example 166, 2-(4-Chloro-1-isopropyl-1H-pyrazol-5-yl)-N-(4-(pyridin-2-yl)benzyl)furo[3,2-d]pyrimidin-4-amine]
1.1	0.8	COc1cnc(-c2c(Cl)cnn2C(C)C)nc1NCc1ccc(-c2nc(C(F)(F)F)cn2C)cc1 [Example 164, 2-(4-Chloro-1-isopropyl-1H-pyrazol-5-yl)-5-methoxy-N-(4-(1-methyl-4-(trifluoromethyl)-1H-imidazol-2-yl)benzyl)pyrimidin-4-amine]
28.6	354	COc1ncnc(C2CC2)c1-c1ncc(OC(C)C)c(NCC2CCN(c3nc(C(F)(F)F)cn3C)CC2)n1 [Example 110, 4'-Cyclopropyl-5-isopropoxy-6'-methoxy-N-((1-(1-methyl-4-(trifluoromethyl)-1H-imidazol-2-yl)piperidin-4-yl)methyl)-[2,5'-bipyrimidin]-4-amine]
9.5	76.7	COc1cnc(-c2c(OC)ncnc2C2CC2)nc1N(Cc1ccc(-c2nc(C(F)(F)F)cn2C)cc1)C1CC1 [Example 141, N,4'-Dicyclopropyl-5,6'-dimethoxy-N-(4-(1-methyl-4-(trifluoromethyl)-1H-imidazol-2-yl)benzyl)-[2,5'-bipyrimidin]-4-amine]
2.7	0.3	[2H]C([2H])([2H])N(c1nc(-c2c(OC)ncnc2C2CC2)ncc1OC)C(C)c1ccc(-c2nc(C(F)(F)F)cn2C)cc1 (stereo not shown) [Example S3, 4'-Cyclopropyl-5,6'-dimethoxy-N-(methyl-D3)-N-(1-(4-(1-methyl-4-(trifluoromethyl)-1 H-imidazol-2-yl)phenyl)ethyl)-[2,5'-bipyrimidin]-4-amine]
13	14.3	COc1cnc(-c2c(OC)ncnc2C2CC2)nc1N(C)C[C@H]1CC[C@H](c2nc(C(F)(F)F)cn2C(C)C)CC1 [Example S26, 4'-Cyclopropyl-N-(((1R,4R)-4-(1-isopropyl-4-(trifluoromethyl)-1H-imidazol-2-yl)cyclohexyl)methyl)-5,6'-dimethoxy-N-methyl-[2,5'-bipyrimidin]-4-amine]
2.3	21.4	CC(C)c1ccccc1-c1nc(NCc2ccc(-c3nc(C(F)(F)F)cn3C)cc2)c2ncccc2n1 [Example 40, 2-(2-Isopropylphenyl)-N-(4-(1-methyl-4-(trifluoromethyl)-1H-imidazol-2-yl)benzyl)pyrido[3,2-d]pyrimidin-4-amine]
6.1	35.9	COc1cnc(-c2c(Cl)cnn2C(C)C)nc1N(C)CC12CCC(c3nc(C(F)(F)F)cn3C)(CC1)OC2 [Example S17, 2-(4-Chloro-1-isopropyl-1H-pyrazol-5-yl)-5-methoxy-N-methyl-N-((1-(1-methyl-4-(trifluoromethyl)-1H-imidazol-2-yl)-2-oxabicyclo[2.2.2]oct-4-yl)methyl)pyrimidin-4-amine]
33	339	Cc1noc(C(C)C)c1-c1ncc(OC(F)F)c(NCc2ccc(-c3nc(C(F)(F)F)cn3C)cc2)n1 [Example 190, 5-(Difluoromethoxy)-2-(5-isopropyl-3-methylisoxazol-4-yl)-N-(4-(1-methyl-4-(trifluoromethyl)-1H-imidazol-2-yl)benzyl)pyrimidin-4-amine]
7.4	45.5	COc1ncnc(C2CC2)c1-c1ncc(C#N)c(NCc2ccc(-c3nc(C(F)(F)F)cn3C)cc2)n1 [Example 131, 4'-Cyclopropyl-6'-methoxy-4-((4-(1-methyl-4-(trifluoromethyl)-1H-imidazol-2-yl)benzyl)amino)-[2,5'-bipyrimidine]-5-carbonitrile]
1.3	479	COC(=O)Cc1cnc(-c2ccccc2C(C)C)nc1NCc1ccc(-c2nc(C(F)(F)F)cn2C)cc1 [Example 91, Methyl 2-(2-(2-isopropylphenyl)-4-((4-(1-methyl-4-(trifluoromethyl)-1H-imidazol-2-yl)benzyl)amino)pyrimidin-5-yl)acetate]
8.3	23.9	COc1cc(-n2nc(C(F)(F)F)cc2C)ccc1CNc1nc(-c2c(OC)ncnc2C2CC2)nc2ccoc12 [Example 121, 2-(4-Cyclopropyl-6-methoxypyrimidin-5-yl)-N-(2-methoxy-4-(5-methyl-3-(trifluoromethyl)-1H-pyrazol-1-yl)benzyl)furo[3,2-d]pyrimidin-4-amine]
51	58.4	COc1cnc(-c2cncnc2C2CC2)nc1NCc1ccc(-c2nc(C(F)(F)F)cn2C)cc1 [Example 194, 4'-Cyclopropyl-5-methoxy-N-(4-(1-methyl-4-(trifluoromethyl)-1H-imidazol-2-yl)benzyl)-[2,5'-bipyrimidin]-4-amine]
5.7	4.6	[2H]C([2H])([2H])Oc1ncnc(C2CC2)c1-c1ncc(OC)c(N(C[C@H]2CC[C@H](c3nc(C(F)(F)F)cn3C)CC2)C([2H])([2H])[2H])n1 [Example S24, 4'-Cyclopropyl-5-methoxy-6'-(methoxy-D3)-N-(methyl-D3)-N(((1R,4R)-4-(1-methyl-4-(trifluoromethyl)-1H-imidazol-2-yl)cyclohexyl)methyl)-[2,5'-bipyrimidin]-4-amine]

Source: patent EP4741386A1 (Jiangsu Yahong Meditech Co., Ltd., priority 2023, dated 2025)
